Patent publication US20240124444A1 (Celgene Corporation, priority 2020, published 2024)
Read-outs that look alike come from different tables or passages of the source.

Test system: C. parvum strain UGA1
Assay: C. parvum growth inhibition assay (Nluc luminescence in HCT-8 cells)
Format: cell-based, Cryptosporidium parvum
Settings: Cryptosporidium parvum; for EC50: HCT-8, 48 h, C. parvum growth inhibition in HCT-8 cells, 48 hours, 6 concentrations 10-0.04 μM; for inhibition at 1 µM / inhibition at 10 µM: HCT-8; for inhibition at 1 µM: read-out: % inh @ 1 uM C. parvum; for inhibition at 10 µM: read-out: % inh @ 10 uM C. parvum
[1] = single point inhibition @ 10 uM
[2] = single point inhibition at 1 uM
[3] = single point inhibition at 10 uM

| SMILES | EC50 | inhibition at 1 µM (single point inhibition @ 1 uM) | inhibition at 10 µM [1] | inhibition at 1 µM [2] | inhibition at 10 µM [3] |
| --- | --- | --- | --- | --- | --- |
| Cc1cc(-c2cc3cnc(NS(=O)(=O)C4CC4)cc3[nH]2)ccn1 [Example 97, N-(2-(2-methylpyridin-4-yl)-1H-pyrrolo[3,2-c]pyridin-6-yl)cyclopropanesulfonamide] | > 1 µM |  |  |  |  |
| Cn1c(-c2ccncc2)cc2cnc(Nc3cnn(C4CCOCC4)c3)cc21 [Example 138, 1-methyl-2-(pyridin-4-yl)-N-(1-(tetrahydro-2H-pyran-4-yl)-1H-pyrazol-4-yl)-1H-pyrrolo[3,2-c]pyridin-6-amine] |  | 0 to 33% | 67 to 100% |  |  |
| CCc1cc2cnc(NC3CCOCC3)cc2[nH]1 [Example 361, 2-ethyl-N-(tetrahydro-2H-pyran-4-yl)-1H-pyrrolo[3,2-c]pyridin-6-amine] | > 1 µM |  |  |  |  |
| Cc1cc(Nc2cc3[nH]c(-c4cccnc4)cc3cn2)cc(-n2cncn2)c1 [Example 337, N-(3-methyl-5-(1H-1,2,4-triazol-1-yl)phenyl)-2-(pyridin-3-yl)-1H-pyrrolo[3,2-c]pyridin-6-amine] |  |  |  | 0 to 33% | 0 to 33% |
| CCOc1nccc(-c2cc3cnc(NC(=O)c4ccc(OCCOC)c(OC)c4)cc3[nH]2)n1 [Example 249, N-(2-(2-ethoxypyrimidin-4-yl)-1H-pyrrolo[3,2-c]pyridin-6-yl)-3-methoxy-4-(2-methoxyethoxy)benzamide] |  |  |  | 0 to 33% | 0 to 33% |
| COc1nccc(-c2cc3cnc(NC(=O)c4cnn(C(C)C)c4)cc3n2C)n1 [Example 309, 1-isopropyl-N-(2-(2-methoxypyrimidin-4-yl)-1-methyl-1H-pyrrolo[3,2-c]pyridin-6-yl)-1H-pyrazole-4-carboxamide] |  |  |  | 0 to 33% | 0 to 33% |
| Cc1cc(-c2cc3cnc(N)cc3[nH]2)ccn1 [Example 81, 2-(2-methylpyridin-4-yl)-1H-pyrrolo[3,2-c]pyridin-6-amine] | > 1 µM | 0 to 33% | 33 to 66% |  |  |
| O=C(Nc1cc2[nH]c(C3CC(F)(F)C3)cc2cn1)C1CC1 [Example 53, N-(2-(3,3-difluorocyclobutyl)-1H-pyrrolo[3,2-c]pyridin-6-yl)cyclopropanecarboxamide] | > 1 µM |  |  |  |  |
| Cn1c(-c2cccnc2)cc2cnc(Nc3cnn(C4CCOCC4)c3)cc21 [Example 266, 1-methyl-2-(pyridin-3-yl)-N-(1-(tetrahydro-2H-pyran-4-yl)-1H-pyrazol-4-yl)-1H-pyrrolo[3,2-c]pyridin-6-amine] |  |  |  | 0 to 33% | 0 to 33% |
| O=C(Nc1cc2[nH]c(-c3ccnc(OCC(F)F)n3)cc2cn1)c1cnn([C@H]2CC[C@@H](O)CC2)c1 [Example 323, N-(2-(2-(2,2-difluoroethoxy)pyrimidin-4-yl)-1H-pyrrolo[3,2-c]pyridin-6-yl)-1-((1s,4s)-4-hydroxycyclohexyl)-1H-pyrazole-4-carboxamide] |  |  |  | 0 to 33% | 0 to 33% |
| Cc1nccc(-c2cc3cnc(NC(=O)c4cnn(C)c4)cc3[nH]2)n1 [Example 185, 1-methyl-N-(2-(2-methylpyrimidin-4-yl)-1H-pyrrolo[3,2-c]pyridin-6-yl)-1H-pyrazole-4-carboxamide] |  | 0 to 33% | 67 to 100% |  |  |
| COC(=O)Nc1cc2[nH]c(-c3ccnc(C)c3)cc2cn1 [Example 174, methyl 2-(2-methylpyridin-4-yl)-1H-pyrrolo[3,2-c]pyridin-6-ylcarbamate] |  | 0 to 33% | 67 to 100% |  |  |
| Cc1cc(-c2cc3cnc(NC(=O)C4CC(C)(O)C4)cc3[nH]2)ccn1 (centres unmarked) [Example 202, 3-hydroxy-3-methyl-N-(2-(2-methylpyridin-4-yl)-1H-pyrrolo[3,2-c]pyridin-6-yl)cyclobutanecarboxamide] |  |  |  | 0 to 33% | 67 to 100% |
| O[C@H]1CC[C@@H](Nc2cc3[nH]c(-c4cccnc4)cc3cn2)CC1 [Example 251, (1s,4s)-4-(2-(pyridin-3-yl)-1H-pyrrolo[3,2-c]pyridin-6-ylamino)cyclohexanol] |  |  |  | 0 to 33% | 0 to 33% |
| COc1nccc(-c2cc3cnc(NC4CCOCC4)cc3[nH]2)n1 [Example 62, 2-(2-methoxypyrimidin-4-yl)-N-(tetrahydro-2H-pyran-4-yl)-1H-pyrrolo[3,2-c]pyridin-6-amine] | > 1 µM |  |  |  |  |
| CC(C)n1cc(C(=O)Nc2cc3[nH]c(-c4ccnc(OC(C)C(F)(F)F)n4)cc3cn2)cn1 (centres unmarked) [Example 149, 1-isopropyl-N-(2-(2-(1,1,1-trifluoropropan-2-yloxy)pyrimidin-4-yl)-1H-pyrrolo[3,2-c]pyridin-6-yl)-1H-pyrazole-4-carboxamide] |  | 0 to 33% | 67 to 100% |  |  |
| FC(F)(F)CNc1cc(-c2cc3cnc(NC4CCOCC4)cc3[nH]2)ncn1 [Example 360, N -(tetrahydro-2H-pyran-4-yl)-2-(6-(2,2,2-trifluoroethylamino)pyrimidin-4-yl)-1H-pyrrolo[3,2-c]pyridin-6-amine] | < 0.5 µM |  |  |  |  |

| SMILES | EC50 | inhibition at 1 µM (single point inhibition @ 1 uM) | inhibition at 10 µM [1] | inhibition at 1 µM [2] | inhibition at 10 µM [3] |
| --- | --- | --- | --- | --- | --- |
| CCOc1nccc(-c2cc3cnc(NC(=O)[C@@H]4C[C@H]4C)cc3[nH]2)n1 (stereo in doubt) [Example 153, (1R,2R)-N-(2-(2-ethoxypyrimidin-4-yl)-1H-pyrrolo[3,2-c]pyridin-6-yl)-2-methylcyclopropanecarboxamide] |  | 0 to 33% | 67 to 100% |  |  |
| O=C(CC1CCOCC1)Nc1cc2[nH]c(-c3ccncc3)cc2cn1 [Example 143, N-(2-(pyridin-4-yl)-1H-pyrrolo[3,2-c]pyridin-6-yl)-2-(tetrahydro-2H-pyran-4-yl)acetamide] |  | 0 to 33% | 67 to 100% |  |  |
| Cc1ncc(-c2cc3cnc(NC(=O)c4cnn(C)c4)cc3[nH]2)o1 [Example 267, 1-methyl-N-(2-(2-methyloxazol-5-yl)-1H-pyrrolo[3,2-c]pyridin-6-yl)-1H-pyrazole-4-carboxamide] |  |  |  | 0 to 33% | 0 to 33% |
| FC(F)(F)CNc1nccc(-c2cc3cnc(NC4CCC4)cc3[nH]2)n1 [Example 373, N-cyclobutyl-2-(2-(2,2,2-trifluoroethylamino)pyrimidin-4-yl)-1H-pyrrolo[3,2-c]pyridin-6-amine] | 0.5 to 1 µM |  |  |  |  |
| CN1CCC(c2cc3cnc(NC(=O)c4cnn(C)c4)cc3[nH]2)CC1 [Example 336, 1-methyl-N-(2-(1-methylpiperidin-4-yl)-1H-pyrrolo[3,2-c]pyridin-6-yl)-1H-pyrazole-4-carboxamide] |  |  |  | 0 to 33% | 0 to 33% |
| N#Cc1cc2cnc(NC(=O)C3CC3)cc2[nH]1 [Example 180, N-(2-cyano-1H-pyrrolo[3,2-c]pyridin-6-yl)cyclopropanecarboxamide] |  | 0 to 33% | 67 to 100% |  |  |
| FC(F)(F)c1cc2cnc(NC3CCOCC3)cc2[nH]1 [Example 71, N-(tetrahydro-2H-pyran-4-yl)-2-(trifluoromethyl)-1H-pyrrolo[3,2-c]pyridin-6-amine] | > 1 µM |  |  |  |  |
| O=C(CC1COC1)Nc1cc2[nH]c(-c3ccnc(C(F)(F)F)n3)cc2cn1 [Example 91, 2-(oxetan-3-yl)-N-(2-(2-(trifluoromethyl)pyrimidin-4-yl)-1H-pyrrolo[3,2-c]pyridin-6-yl)acetamide] | > 1 µM | 0 to 33% | 0 to 33% |  |  |
| CC(Oc1nccc(-c2cc3cnc(NC(=O)c4cnn(C)c4)cc3[nH]2)n1)C(F)F (centres unmarked) [Example 141, N-(2-(2-(1,1-difluoropropan-2-yloxy)pyrimidin-4-yl)-1H-pyrrolo[3,2-c]pyridin-6-yl)-1-methyl-1H-pyrazole-4-carboxamide] |  | 0 to 33% | 67 to 100% |  |  |
| O=C(Nc1cc2[nH]c(-c3ccc(F)cn3)cc2cn1)C1CC1 [Example 268, N-(2-(5-fluoropyridin-2-yl)-1H-pyrrolo[3,2-c]pyridin-6-yl)cyclopropanecarboxamide] |  |  |  | 0 to 33% | 0 to 33% |
| Cc1cc(-c2cc3cnc(NC(=O)c4cnn(C)c4)cc3[nH]2)ccn1 [Example 224, 1-methyl-N-(2-(2-methylpyridin-4-yl)-1H-pyrrolo[3,2-c]pyridin-6-yl)-1H-pyrazole-4-carboxamide] |  |  |  | 0 to 33% | 33 to 66% |
| CCOc1nccc(-c2cc3cnc(NC(=O)c4cn(CCO)nc4C)cc3[nH]2)n1 [Example 233, N-(2-(2-ethoxypyrimidin-4-yl)-1H-pyrrolo[3,2-c]pyridin-6-yl)-1-(2-hydroxyethyl)-3-methyl-1H-pyrazole-4-carboxamide] |  |  |  | 0 to 33% | 33 to 66% |
| Cc1cc(-c2cc3cnc(NC(=O)OC4CCOC4)cc3[nH]2)ccn1 (stereo in doubt) [Example 152, (R)-tetrahydrofuran-3-yl 2-(2-methylpyridin-4-yl)-1H-pyrrolo[3,2-c]pyridin-6-ylcarbamate] |  | 0 to 33% | 67 to 100% |  |  |
| CO[C@H]1C[C@H](C(=O)Nc2cc3[nH]c(-c4ccnc(C)c4)cc3cn2)C1 [Example 161, (1r,3r)-3-methoxy-N-(2-(2-methylpyridin-4-yl)-1H-pyrrolo[3,2-c]pyridin-6-yl)cyclobutanecarboxamide] |  | 0 to 33% | 67 to 100% |  |  |
| Cn1c(-c2ccnc(NCC(F)(F)F)n2)cc2cnc(N[C@H]3CCCOC3)cc21 (racemic) [Example 36, 1-Methyl-N-[rac-(3s)-tetrahydropyran-3-yl]-2-[2-(2,2,2-trifluoroethylamino)pyrimidin-4-yl]pyrrolo[3,2-c]pyridin-6-amine] | > 1 µM | 33 to 66% | 67 to 100% |  |  |
| Cc1nccc(-c2cc3cnc(NC4CCOCC4)cc3n2C)n1 [Example 378, 1-methyl-2-(2-methylpyrimidin-4-yl)-N-(tetrahydro-2H-pyran-4-yl)-1H-pyrrolo[3,2-c]pyridin-6-amine] | > 1 µM |  |  |  |  |
| c1nc(NC2CCOCC2)cc2[nH]c(C3CCC3)cc12 [Example 121, 2-cyclobutyl-N-(tetrahydro-2H-pyran-4-yl)-1H-pyrrolo[3,2-c]pyridin-6-amine] | > 1 µM |  |  |  |  |
